Holding throughout (assay type): cell-based
In one experiment the target is T1, human TGR5 receptor (Homo sapiens, UniProt Q8TDU6).
T1 construct: host or cells: CHO-K1 (hTGR5-CHO)
T1 sequence (Q8TDU6 1-330): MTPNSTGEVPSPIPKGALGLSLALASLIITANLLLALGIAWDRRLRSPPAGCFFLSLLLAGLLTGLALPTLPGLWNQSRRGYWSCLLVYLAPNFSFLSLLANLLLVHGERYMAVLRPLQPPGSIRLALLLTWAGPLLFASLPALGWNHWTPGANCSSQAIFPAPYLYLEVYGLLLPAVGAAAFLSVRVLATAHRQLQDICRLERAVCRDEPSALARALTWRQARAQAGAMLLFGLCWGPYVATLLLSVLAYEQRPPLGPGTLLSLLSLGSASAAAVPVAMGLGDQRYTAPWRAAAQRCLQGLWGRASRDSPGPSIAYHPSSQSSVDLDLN
Put plainly: Human TGR5 cAMP production assay (hTGR5-CHO cells, DiscoveRx cAMP XS+ kit). The note with it: luminescent cAMP assay, read-out: Human TGR5 Lum. cAMP Activity (EC50). The method in brief:
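CHO-K1 cells stably expressing hTGR5, in PBS with IBMX and cAMP antibody, treated with half-log compound dilutions for 1 h at room temperature. cAMP measured by enzyme-fragment complementation luminescence after overnight detection; EC50 values reported.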
On the technique in general: Changes in cAMP serve as a functional read-out for many G protein-coupled receptors.

Another experiment concerns the target T2, mouse TGR5 receptor (Mus musculus, UniProt Q80SS6).
T2 construct: host or cells: HEK293-EBNA (293 c18, ATCC CRL10852)
T2 sequence (Q80SS6 1-329): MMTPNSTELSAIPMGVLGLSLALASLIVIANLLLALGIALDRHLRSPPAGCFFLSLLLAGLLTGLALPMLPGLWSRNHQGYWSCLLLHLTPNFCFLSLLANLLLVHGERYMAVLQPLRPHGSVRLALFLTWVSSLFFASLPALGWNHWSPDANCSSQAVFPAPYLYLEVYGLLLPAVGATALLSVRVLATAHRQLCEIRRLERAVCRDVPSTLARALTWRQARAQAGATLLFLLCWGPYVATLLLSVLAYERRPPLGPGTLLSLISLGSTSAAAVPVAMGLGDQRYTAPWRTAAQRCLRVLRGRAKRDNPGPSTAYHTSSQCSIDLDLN
Put plainly: Mouse TGR5 HTRF cAMP production assay (HEK293-EBNA cells, Cisbio cAMP HiRange kit). The note with it: HEK293-EBNA cells overexpressing mouse TGR5, HTRF cAMP assay. The method in brief: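 HEK293-EBNA cells stably expressing mouse TGR5 (episomal vector) were suspended in serum-free DMEM with 500 μM IBMX and exposed to 12-point half-log compound dilutions for 1 h at room temperature. cAMP was detected by HTRF (d2-cAMP/anti-cAMP cryptate, 1 h, room temperature), giving EC50 from duplicates.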
In general terms: In TR-FRET formats the signal depends on donor and acceptor labels being close together.

Another experiment deals with Mouse STC-1 cells. Put plainly: STC-1 GLP-1 assay (GLP-1 secretion). Conditions: Mouse STC-1 cells, GLP-1 secretion, 2 h; read-out: Mouse STC-1 HTRF GLP-1 Activity (EC50). On the procedure: Compounds of the present invention were evaluated for their ability to induce GLP-1 production in mouse intestinal neuroendocrine tumor cells.
Mouse STC-1 cells were cultured and maintained in high glucose DMEM (Sigma #5796) supplemented with 15% horse serum, 5% Fetal Bovine Serum (FBS), 1%° penicillin/streptomycin, and 2 mM L-alanine L-glutamine (GlutaMax). Two days prior to analysis of GLP-1 secretion cells were harvested using Accutase (Sigma), spun down then resuspended in high glucose DMEM media containing 2 mM L-alanine L-glutamine (GlutaMax), 10% charcoal-dextran stripped FBS, and 50 μg/mL Gentamicin, at a density of 100,000° cells/mL. 100 μL of cell suspension was added to each well of a 96-well Poly-D-Lysine coated culture plate (Sigma; cat #2382493) and was incubated at 37° C. with 5% CO2.
Compounds were initially diluted in 100% DMSO (12-point serial dilution by half logs) in a 96-well plate and then were further diluted 1:500 in Hanks' Balanced Salt Solution (HBSS) containing protease inhibitor cocktail, DPP-IV inhibitor, and 0.1% fatty acid free bovine serum albumin. On the day of the experiment cells were washed once with HBSS. After wash, 100 μL of test compound was added to each well. The plate was incubated at 37° C. with 5% CO2 for 2° h. Supernatants were collected and GLP-1 secretion was measured using the Cisbio™ Active GLP-1 HTRF Assay Kit (CisBio). Briefly, Anti-GLP-1-d2 conjugate and Anti-GLP-1 Terbium Cryptate conjugate stock solutions were prepared as per kit instructions. The two solutions were pre-mixed and 10 μL were transferred to a 384-well low volume plate (Greiner; cat #784075). 10 μL of collected supernatants were added to wells already containing the conjugate solution. The plate was covered and incubated at room temperature overnight. The plate was read on an Envision™ plate reader (PerkinElmer).
In Table 53, EC50 values were obtained from the STC-1 GLP-1 production assay for compounds of the present invention are summarized.

By EC50 is commonly meant the concentration that produces a half-maximal response. In the case of `N#CCCN1CCN(c2cc(N3CC[C@H]3C(=O)NCCc3ccc(C#N)cc3)nc(C(F)(F)F)n2)CC1` [Compound 229, (S)-1-(6-(4-(2-cyanoethyl)piperazin-1-yl)-2-(trifluoromethyl)pyrimidin-4-yl)-N-(4-cyanophenethyl)azetidine-2-carboxamide], the results for the EC50 at human TGR5 receptor, at mouse TGR5 receptor and in the experiment with Mouse STC-1 cells were less than 100 nM, less than 100 nM and 100 to 999 nM, respectively.

With `N#CCCN1CCN(c2cc(N3CCC[C@H]3C(=O)NCCc3ccc(C(F)(F)F)cc3)nc(C(F)(F)F)n2)CC1` [Compound 10], the EC50 is less than 100 nM on human TGR5 receptor, less than 100 nM at mouse TGR5 receptor and 100 to 999 nM in the experiment with Mouse STC-1 cells.

Consider `COc1cc(C(F)(F)F)ccc1CCNC(=O)[C@@H]1CCN1c1cc(N2CCC(CCO)CC2)nc(C(F)(F)F)n1` [Compound 238, (5)-1-(6-(4-(2-hydroxyethyl)piperidin-1-yl)-2-(trifluoromethyl)pyrimidin-4-yl)-N-(2-methoxy-4-(trifluoromethyl)phenethyl)azetidine-2-carboxamide], for which the 50% effective concentration (EC50) was less than 100 nM on human TGR5 receptor, less than 100 nM at mouse TGR5 receptor and 100 to 999 nM in the experiment on Mouse STC-1 cells.

Take `CCOC(=O)CCNC(=O)NCCC1CCN(c2cc(N3CCC[C@@H](C(=O)NCCc4ccc(C#N)cc4)C3)nc(C(F)(F)F)n2)CC1` [Compound 346, (R)-ethyl 3-(3-(2-(1-(6-(3-((4-cyanophenethyl)carbamoyl)piperidin-1-yl)-2-(trifluoromethyl)pyrimidin-4-yl)piperidin-4-yl)ethyl)ureido)propanoate]: the 50% effective concentration (EC50) at human TGR5 receptor, at mouse TGR5 receptor and in the experiment with Mouse STC-1 cells was less than 100 nM throughout.

On to `CN(C)CCN1CCN(c2cc(N3CCC[C@@H](C(=O)NCCc4ccc(C#N)cc4)C3)nc(C(F)(F)F)n2)CC1` [Compound 333, (R)-N-(4-cyanophenethyl)-1-(6-(4-(2-(dimethylamino)ethyl)piperazin-1-yl)-2-(trifluoromethyl)pyrimidin-4-yl)piperidine-3-carboxamide], for which the values for the EC50 at human TGR5 receptor, at mouse TGR5 receptor and in the experiment with Mouse STC-1 cells were less than 100 nM, less than 100 nM and 100 to 999 nM, respectively.

Consider `N#Cc1ccc(CCNC(=O)[C@@H]2CCCN2c2cc(N3CCC(CO)CC3)cc(C(F)(F)F)n2)cc1` [Compound 38], for which the concentration for a half-maximal effect (EC50) is less than 100 nM at human TGR5 receptor, less than 100 nM on mouse TGR5 receptor and 100 to 999 nM in the experiment on Mouse STC-1 cells.

For `COc1cc(C(F)(F)F)ccc1CCNC(=O)[C@@H]1CCN1c1cc(N2CCC(CCCC(=O)O)CC2)nc(C(F)(F)F)n1` [Compound 240, (S)-4-(1-(6-(2-((2-methoxy-4-(trifluoromethyl)phenethyl)carbamoyl)azetidin-1-yl)-2-(trifluoromethyl)pyrimidin-4-yl)piperidin-4-yl)butanoic acid], the EC50 at human TGR5 receptor, at mouse TGR5 receptor and in the experiment with Mouse STC-1 cells was less than 100 nM in each case.

As for `CN(C)CCC1CCN(c2cc(N3CC[C@H]3C(=O)NCCc3ccc(C#N)cc3)nc(C(F)(F)F)n2)CC1` [Compound 228, (S)-N-(4-cyanophenethyl)-1-(6-(4-(2-(dimethylamino)ethyl)piperidin-1-yl)-2-(trifluoromethyl)pyrimidin-4-yl)azetidine-2-carboxamide], the 50% effective concentration (EC50) is less than 100 nM at human TGR5 receptor, less than 100 nM at mouse TGR5 receptor and 100 to 999 nM with Mouse STC-1 cells.

Take `N#Cc1ccc(CCNC(=O)[C@@H]2CCN2c2cc(N3CCC(CCC(=O)NCCS(=O)(=O)O)CC3)nc(C(F)(F)F)n2)cc1` [Compound 262]: the EC50 was less than 100 nM on human TGR5 receptor, less than 100 nM on mouse TGR5 receptor and 100 to 999 nM in the experiment on Mouse STC-1 cells.

Turning to `N#CCCC1CCN(c2cc(N3CC[C@H]3C(=O)NCCc3ccc(C#N)cc3)nc(C(F)(F)F)n2)CC1` [Compound 230, (S)-1-(6-(4-(2-cyanoethyl)piperidin-1-yl)-2-(trifluoromethyl)pyrimidin-4-yl)-N-(4-cyanophenethyl)azetidine-2-carboxamide], the 50% effective concentration (EC50) is less than 100 nM on human TGR5 receptor, less than 100 nM on mouse TGR5 receptor and 100 to 999 nM with Mouse STC-1 cells.

The values above are taken from patent US10654834B2 (Venenum Biodesign, LLC, priority 2016, dated 2020).
